In US20230266302A1, “SYNTHESIS AND USE OF N-BENZYL SULFONAMIDES” (THE UNIVERSITY OF TULSA, priority 2020, published 2023):

How the values were obtained:
Assay in all cases: ATP level assay (CellTiter-Glo), percent of control
Assay type in all cases: cell-based
[1] = tested on: BxPC3 (pancreatic cancer); settings: two hour incubation; for activity at 100 µM: Homo sapiens, BXPC-3, 2 h, compound alone, control DMSO, read-out: POC (percent of control) BxPC3
[2] = tested on: H293 (kidney cancer); settings: two hour incubation; for activity at 100 µM: 2 h, compound alone, control DMSO, read-out: POC (percent of control) H293
[3] = tested on: HDF (normal cells); settings: two hour incubation; for activity at 100 µM: 2 h, compound alone, control DMSO, read-out: POC (percent of control) HDF
[4] = tested on: HeLa (cervical cancer); settings: two hour incubation; for activity at 100 µM: Homo sapiens, HeLa, 2 h, compound alone, control DMSO, read-out: POC (percent of control) HeLa
[5] = tested on: MCF10A (non-cancerous breast); settings: two hour incubation; for activity at 100 µM: Homo sapiens, MCF-10A, 2 h, compound alone, control DMSO, read-out: POC (percent of control) MCF10A
[6] = tested on: MCF7 (breast cancer); settings: two hour incubation; for activity at 100 µM: Homo sapiens, MCF7, 2 h, compound alone, control DMSO, read-out: POC (percent of control) MCF7
[7] = tested on: MDA-MB (breast cancer); settings: two hour incubation; for activity at 100 µM: 2 h, compound alone, control DMSO, read-out: POC (percent of control) MDA-MB
[8] = tested on: NCI-H196 (lung cancer); settings: two hour incubation; for activity at 100 µM: NCI-H196, 2 h, compound alone, control DMSO, read-out: POC (percent of control) NCI-H196
[9] = tested on: PC3 (prostate cancer); settings: two hour incubation; for activity at 100 µM: 2 h, compound alone, control DMSO, read-out: POC (percent of control) PC3
[10] = tested on: SkBr3 (breast cancer); settings: two hour incubation; for activity at 100 µM: Homo sapiens, SK-BR-3, 2 h, compound alone, control DMSO, read-out: POC (percent of control) SkBr3
[11] = tested on: T47D (breast cancer); settings: two hour incubation; for activity at 100 µM: Homo sapiens, T47D, 2 h, compound alone, control DMSO, read-out: POC (percent of control) T47D
[12] = compound 100 uM + rotenone (approximately 1.25 μM)
[13] = compound 100 uM + 2DG (about 10-20 mM)

Compound	activity at 100 µM [1] [%]	POC (percent of control) BxPC3 [1, 12]	activity at 100 µM [2] [%]	POC (percent of control) H293 [2, 13]	POC (percent of control) H293 [2, 12]	activity at 100 µM [3] [%]	POC (percent of control) HDF [3, 13]	POC (percent of control) HDF [3, 12]	activity at 100 µM [4] [%]	POC (percent of control) HeLa [4, 13]	POC (percent of control) HeLa [4, 12]	activity at 100 µM [5] [%]	POC (percent of control) MCF10A [5, 13]	POC (percent of control) MCF10A [5, 12]	activity at 100 µM [6] [%]	POC (percent of control) MCF7 [6, 13]	POC (percent of control) MCF7 [6, 12]	activity at 100 µM [7] [%]	POC (percent of control) MDA-MB [7, 13]	POC (percent of control) MDA-MB [7, 12]	also measured
Cc1ccc(S(=O)(=O)NCc2c[nH]c3ccccc23)cc1 [Compound 1, N-[(1H-indol-3-yl)methyl]-4-methylbenzenesulfonamide]	97.1	86.6% of control	92.8	48.2% of control	69% of control	98.5	85% of control	107.7% of control	95	66.3% of control	78.7% of control	73.3	86.7% of control	69% of control	103	86.8% of control	79.6% of control	78.1	62% of control	80.5% of control	activity at 100 µM [8]: 90.8%; POC (percent of control) NCI-H196 [8, 13]: 68.8% of control; POC (percent of control) NCI-H196 [8, 12]: 83.2% of control; activity at 100 µM [9]: 91.7%; POC (percent of control) PC3 [9, 13]: 57.3% of control; POC (percent of control) PC3 [9, 12]: 72.6% of control; activity at 100 µM [10]: 97.7%; POC (percent of control) SkBr3 [10, 13]: 72.9% of control; POC (percent of control) SkBr3 [10, 12]: 91.2% of control; activity at 100 µM [11]: 53.2%; POC (percent of control) T47D [11, 13]: 43.2% of control; POC (percent of control) T47D [11, 12]: 76.6% of control
O=S(=O)(NCc1c[nH]c2ccccc12)c1ccccc1 [Compound 3, N-[(1H-indol-3-yl)methyl]benzenesulfonamide]	96.8	84.5% of control	74.3	42.8% of control	69.3% of control	84.5	72.7% of control	91.9% of control	99.2	67.6% of control	85.5% of control	62.5	72.7% of control	110.5% of control	105	74.5% of control	97.3% of control	92.4	81.8% of control	102.7% of control	activity at 100 µM [8]: 89.6%; POC (percent of control) NCI-H196 [8, 13]: 55% of control; POC (percent of control) NCI-H196 [8, 12]: 89.2% of control; activity at 100 µM [9]: 85%; POC (percent of control) PC3 [9, 13]: 59.4% of control; POC (percent of control) PC3 [9, 12]: 65.1% of control; activity at 100 µM [10]: 72.8%; POC (percent of control) SkBr3 [10, 13]: 79.4% of control; POC (percent of control) SkBr3 [10, 12]: 97.1% of control; activity at 100 µM [11]: 34.9%; POC (percent of control) T47D [11, 13]: 37.1% of control; POC (percent of control) T47D [11, 12]: 58.7% of control
Cn1cc(CNS(=O)(=O)c2ccc(Cl)cc2)c2ccccc21 [Compound 29, 4-chloro-N-[(1-methyl-1H-indol-3-yl)methyl]benzenesulfonamide]	80.8	52.7% of control	91.2	55% of control	50.5% of control	95.8	73% of control	81.5% of control	80.9	83.9% of control	93.1% of control	78.9	46.2% of control	62.7% of control	105	90.9% of control	98% of control	81.1	64.7% of control	69.7% of control	POC (percent of control) BxPC3 [1, 13]: 51.7% of control; activity at 100 µM [8]: 192%; POC (percent of control) NCI-H196 [8, 13]: 51.3% of control; POC (percent of control) NCI-H196 [8, 12]: 100.3% of control; activity at 100 µM [9]: 77.8%; POC (percent of control) PC3 [9, 13]: 67.5% of control; POC (percent of control) PC3 [9, 12]: 67% of control; activity at 100 µM [10]: 102%; POC (percent of control) SkBr3 [10, 13]: 72.5% of control; POC (percent of control) SkBr3 [10, 12]: 78.6% of control; activity at 100 µM [11]: 90%; POC (percent of control) T47D [11, 13]: 60.7% of control; POC (percent of control) T47D [11, 12]: 77.6% of control
O=S(=O)(NCc1c[nH]c2cccc(Br)c12)c1ccc(Cl)cc1 [Compound 27, N-[(4-bromo-1H-indol-3-yl)methyl]-4-chlorobenzenesulfonamide]	42.8	15.8% of control	67	30.4% of control	27.3% of control	65	38% of control	66.6% of control	58.3	104.3% of control	73.3% of control	58.9	27.1% of control	30.2% of control	82.9	50.2% of control	61.1% of control	62.6	27.3% of control	37.3% of control	POC (percent of control) BxPC3 [1, 13]: 14.2% of control; activity at 100 µM [8]: 150%; POC (percent of control) NCI-H196 [8, 13]: 117.2% of control; POC (percent of control) NCI-H196 [8, 12]: 16.7% of control; activity at 100 µM [9]: 43.1%; POC (percent of control) PC3 [9, 13]: 15.2% of control; POC (percent of control) PC3 [9, 12]: 27.2% of control; activity at 100 µM [10]: 95.6%; POC (percent of control) SkBr3 [10, 13]: 62.4% of control; POC (percent of control) SkBr3 [10, 12]: 66% of control; activity at 100 µM [11]: 33.9%; POC (percent of control) T47D [11, 13]: 103.1% of control; POC (percent of control) T47D [11, 12]: 103.8% of control
